From PubChem BioAssay (NCI) come the findings set out here.

Molecules are shown by their SMILES.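 Tested at 5 concentrations; 48 h exposure; 96-well plates; endpoints linearly interpolated, else capped at highest concentration. GI50 is the concentration that inhibits growth by half. TGI: total growth inhibition.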 Some results are limits rather than exact numbers.

Some test systems named below: CAKI-1 renal; COLO 205 colon; HL-60(TB) leukemia; K-562 leukemia; MDA-MB-231 breast; NCI-H23 lung; RXF 393 renal; SK-OV-3 ovarian; SNB-75 CNS; UACC-62 melanoma.
What all share (test): NCI tumour cell line growth inhibition, 48 h

On to `COc1ccc(/C=C2\CN(C(=O)CCN3CCC(=NO)CC3)C/C(=C\c3ccc(OC)cc3)C2=O)cc1`, for which the GI50 in the experiment with CAKI-1 renal is 1.82 µM; with COLO 205 colon, 2.04 µM; with HL-60(TB) leukemia it was 2.8 µM; in the experiment with K-562 leukemia, 1.2 µM; in the experiment with MDA-MB-231 breast, 2.11 µM; in the experiment with NCI-H23 lung, 2.47 µM. Further, the GI50 was 1.68 µM in the experiment on RXF 393 renal, 2.72 µM with SK-OV-3 ovarian, 2.14 µM with SNB-75 CNS and 1.89 µM in the experiment with UACC-62 melanoma. Also, the TGI is 3.74 µM in the experiment with CAKI-1 renal; 4.11 µM in the experiment with COLO 205 colon; 8.27 µM with HL-60(TB) leukemia; greater than 100 µM with K-562 leukemia; 4.55 µM with MDA-MB-231 breast; 6.37 µM with NCI-H23 lung. In addition, the TGI was found to be 3.15 µM in the experiment on RXF 393 renal, 7 µM in the experiment on SK-OV-3 ovarian, 9.33 µM with SNB-75 CNS and 4.38 µM in the experiment on UACC-62 melanoma.
Turning to `CC(=O)Oc1ccccc1[C@H]1CC(=O)C[C@H](c2ccccc2OC(C)=O)C12C(=O)c1ccccc1C2=O`, the TGI with CAKI-1 renal is greater than 100 µM; in the experiment on COLO 205 colon it was 54.3 µM; in the experiment with HL-60(TB) leukemia, greater than 100 µM; in the experiment on K-562 leukemia it was 84 µM; in the experiment with MDA-MB-231 breast, 94.6 µM; in the experiment on NCI-H23 lung, 90.5 µM. Moreover, the TGI with RXF 393 renal is 93.4 µM; with SK-OV-3 ovarian it was greater than 100 µM; in the experiment with SNB-75 CNS, greater than 100 µM; with UACC-62 melanoma, 30.9 µM.
`COc1cc(C2CC(c3cccc(Nc4ccncc4)c3)=NN2c2cc(Cl)cc(Cl)c2)cc(OC)c1OC` (stereo unspecified): the GI50 in the experiment with CAKI-1 renal was 1.53 µM; in the experiment on HL-60(TB) leukemia, 1.53 µM; in the experiment with NCI-H23 lung, 1.79 µM; in the experiment on SK-OV-3 ovarian it was 1.86 µM; with SNB-75 CNS, 1.31 µM; in the experiment on UACC-62 melanoma it was 1.69 µM. The TGI was 2.91 µM with CAKI-1 renal; 3.65 µM with HL-60(TB) leukemia; 3.38 µM with NCI-H23 lung; 3.89 µM in the experiment on SK-OV-3 ovarian; 3.06 µM in the experiment with SNB-75 CNS; 3.18 µM in the experiment on UACC-62 melanoma.
In the case of `COc1cc2cc(Oc3ccc(NC(=O)Nc4ccc(F)c(C(F)(F)F)c4)cc3)c(C)nc2cc1OCCN1CCCCC1`, the GI50 in the experiment with CAKI-1 renal is 1.47 µM; in the experiment with HL-60(TB) leukemia it was 1.91 µM; in the experiment with K-562 leukemia, 1.29 µM; in the experiment with MDA-MB-231 breast, 1.67 µM; in the experiment with SK-OV-3 ovarian, 1.87 µM; with SNB-75 CNS, 1.33 µM. Moreover, the GI50 in the experiment on UACC-62 melanoma is 1.71 µM. Also, the TGI in the experiment with CAKI-1 renal was determined as 2.78 µM; in the experiment on HL-60(TB) leukemia it was 3.81 µM; with K-562 leukemia it was 3.79 µM; with MDA-MB-231 breast it was 3.19 µM; with SK-OV-3 ovarian, 3.42 µM; in the experiment on SNB-75 CNS it was 2.6 µM. In the experiment on UACC-62 melanoma, the TGI amounted to 3.19 µM.
Turning to `O=C(c1ccccc1)c1nn(-c2ccc(Cl)cc2)c2nc3nc(-c4ccccc4)cc(=O)n3nc12`, the GI50 is greater than 100 µM in the experiment with CAKI-1 renal; 47.2 µM in the experiment with COLO 205 colon; 3.48 µM in the experiment on HL-60(TB) leukemia; 50.1 µM in the experiment with K-562 leukemia; 26 µM in the experiment with MDA-MB-231 breast; 65.6 µM in the experiment with NCI-H23 lung. Moreover, the GI50 in the experiment on RXF 393 renal is 68.9 µM; in the experiment with SK-OV-3 ovarian, greater than 100 µM; with SNB-75 CNS it was 28.8 µM; in the experiment with UACC-62 melanoma it was 19.8 µM. Moreover, the TGI was greater than 100 µM with CAKI-1 renal; greater than 100 µM with COLO 205 colon; 14.8 µM in the experiment on HL-60(TB) leukemia; greater than 100 µM with K-562 leukemia; greater than 100 µM in the experiment on MDA-MB-231 breast; greater than 100 µM with NCI-H23 lung. Further, the TGI in the experiment with RXF 393 renal was greater than 100 µM; in the experiment with SK-OV-3 ovarian, greater than 100 µM; in the experiment with SNB-75 CNS, 97.9 µM; with UACC-62 melanoma, 41.9 µM.
